Values joined by “and” are separate entries in the source; they are usually repeats but may differ in a detail not shown here. Equal values may be shown once.
Columns and labels:
[1] = molar heat capacity at constant pressure; conditions: 101.33 kPa, Large sample (1 g) DSC
[2] = Crystal; DTA
[3] = Molar enthalpy of transition or fusion; conditions: Crystal; DSC

OC1CCCCCC1 [cycloheptanol]
[1]
Conditions | molar heat capacity at constant pressure
260.59 K, Crystal | 195.3 J/K/mol
260.73 K, Crystal | 195.4 J/K/mol
262 K, Crystal | 196.4 J/K/mol and 196.5 J/K/mol
264 K, Crystal | 198 J/K/mol and 198.1 J/K/mol
266 K, Crystal | 199.8 J/K/mol
268 K, Crystal | 201.8 J/K/mol and 201.7 J/K/mol
270 K, Crystal | 204 J/K/mol
271.34 K, Crystal | 205.2 J/K/mol
271.43 K, Crystal | 205.4 J/K/mol
286.01 K, Liquid | 236.1 J/K/mol
286.13 K, Liquid | 236.3 J/K/mol
290 K, Liquid | 240.6 J/K/mol
295 K, Liquid | 246.5 J/K/mol
300 K, Liquid | 252.3 J/K/mol
305 K, Liquid | 258.1 J/K/mol and 258.2 J/K/mol
310 K, Liquid | 263.8 J/K/mol
315 K, Liquid | 269.4 J/K/mol and 269.5 J/K/mol
320 K, Liquid | 274.8 J/K/mol and 274.9 J/K/mol
325 K, Liquid | 280.3 J/K/mol and 280.2 J/K/mol
330 K, Liquid | 285.3 J/K/mol and 285.2 J/K/mol
335 K, Liquid | 289.9 J/K/mol and 290 J/K/mol
340 K, Liquid | 294.4 J/K/mol
345 K, Liquid | 299.2 J/K/mol
350 K, Liquid | 303.6 J/K/mol
354.82 K, Liquid | 307.6 J/K/mol
355 K, Liquid | 307.7 J/K/mol
357.82 K, Liquid | 309.7 J/K/mol

OC1CCCCC1 [cyclohexanol]
[1]
Conditions | molar heat capacity at constant pressure
261.42 K, Crystal | 162.6 J/K/mol
261.48 K, Crystal | 162.8 J/K/mol
264 K, Crystal | 164.5 J/K/mol and 164.7 J/K/mol
267 K, Crystal | 166.8 J/K/mol and 167 J/K/mol
270 K, Crystal | 169.1 J/K/mol and 169.4 J/K/mol
273 K, Crystal | 171.7 J/K/mol and 172 J/K/mol
276 K, Crystal | 174.5 J/K/mol and 174.9 J/K/mol
279 K, Crystal | 177.4 J/K/mol and 177.9 J/K/mol
282 K, Crystal | 180.8 J/K/mol and 181.4 J/K/mol
284.5 K, Crystal | 184.9 J/K/mol
284.95 K, Crystal | 184.8 J/K/mol
305.05 K, Liquid | 218.3 J/K/mol
305.18 K, Liquid | 218.6 J/K/mol
310 K, Liquid | 223.8 J/K/mol and 224 J/K/mol
315 K, Liquid | 229.6 J/K/mol and 229.7 J/K/mol
320 K, Liquid | 235.5 J/K/mol and 235.3 J/K/mol
325 K, Liquid | 241.3 J/K/mol and 241.1 J/K/mol
330 K, Liquid | 246.7 J/K/mol and 246.8 J/K/mol
335 K, Liquid | 252 J/K/mol and 252.2 J/K/mol
340 K, Liquid | 257.4 J/K/mol and 257.6 J/K/mol
345 K, Liquid | 262.8 J/K/mol and 263 J/K/mol
350 K, Liquid | 268 J/K/mol
355 K, Liquid | 272.3 J/K/mol and 272.5 J/K/mol
357.82 K, Liquid | 274.7 J/K/mol
357.94 K, Liquid | 274.7 J/K/mol

OC1CCC1 [cyclobutanol]
Conditions | Molar enthalpy of transition or fusion [kcal/mol] | Normal melting temperature [°C]
[2] | – | -45.61
[3] | 1.89 | –

[1], Liquid
Conditions | molar heat capacity at constant pressure
258.09 K | 132.4 J/K/mol and 132.7 J/K/mol
263.2 K | 134.8 J/K/mol and 134.7 J/K/mol
268.3 K | 137 J/K/mol and 137.2 J/K/mol
273.41 K | 139.4 J/K/mol
278.51 K | 141.8 J/K/mol
283.62 K | 144.6 J/K/mol and 144.4 J/K/mol
288.72 K | 147.4 J/K/mol and 147.3 J/K/mol
293.83 K | 150.5 J/K/mol and 150.2 J/K/mol
298.93 K | 153.7 J/K/mol and 153.8 J/K/mol
304.04 K | 157 J/K/mol and 157.1 J/K/mol
309.14 K | 160.5 J/K/mol
314.25 K | 164.1 J/K/mol and 164 J/K/mol
319.35 K | 168 J/K/mol and 167.9 J/K/mol
324.46 K | 171.9 J/K/mol and 171.6 J/K/mol
329.57 K | 175.4 J/K/mol
334.67 K | 179.4 J/K/mol
339.77 K | 183.6 J/K/mol and 183.1 J/K/mol
344.88 K | 187.5 J/K/mol and 187 J/K/mol
349.98 K | 191.6 J/K/mol
355.09 K | 195.6 J/K/mol

OC1CCCC1 [cyclopentanol]
[1], Liquid
Conditions | molar heat capacity at constant pressure
265.06 K | 157.6 J/K/mol
270 K | 160.7 J/K/mol
275 K | 164.2 J/K/mol
280 K | 167.8 J/K/mol and 167.9 J/K/mol
285 K | 171.6 J/K/mol and 171.7 J/K/mol
290 K | 175.7 J/K/mol and 175.9 J/K/mol
295 K | 180 J/K/mol and 180.1 J/K/mol
300 K | 184.3 J/K/mol and 184.4 J/K/mol
305 K | 188.6 J/K/mol and 188.7 J/K/mol
310 K | 193 J/K/mol and 193.1 J/K/mol
315 K | 197.4 J/K/mol and 197.6 J/K/mol
320 K | 201.8 J/K/mol and 202 J/K/mol
325 K | 206.2 J/K/mol and 206.4 J/K/mol
330 K | 210.5 J/K/mol and 210.7 J/K/mol
335 K | 215 J/K/mol and 215.1 J/K/mol
340 K | 219.5 J/K/mol
345 K | 223.8 J/K/mol and 223.7 J/K/mol
350 K | 228.1 J/K/mol and 228 J/K/mol
354.91 K | 232 J/K/mol
355 K | 232 J/K/mol
357.78 K | 234.1 J/K/mol

Reference: the NIST ThermoML archive (doi:10.1016/j.tca.2014.10.002)
